# Source: patent publication US20020183384A1, “Methods of treating nuclear factor-kappa B mediated diseases and disorders” (priority 2001, published 2002)
# Tested on: NF-κB mediated transcription
# Assay: NF-κB driven β-lactamase reporter assay in ECV-304 NF-κB.βlaZ cells (AURORA CCF2 fluorescence)
# Type: cell-based, human
# Conditions: 10 μM compound; ECV-304 NF-κB.βlaZ cells stimulated with 10 ng/mL TNF-α or 100 pg/mL IL-1β, 6 hours at 37° C.; inhibition of maximum blue/green ratio
# Outline: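 ECV-304 cells (clone 1E8) stably carrying a β-lactamase reporter driven by 5 HIV-1 NF-κB sites, plated in M-199 with 2% FBS, compound at 10 μM final. CCF2 read at 395 nm excitation, blue 460 nm/green 530 nm emission ratio; IC50 from dose-response curve.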
row,Compound,Percent Inhibition at 10 μM [%]
1,"COC(=O)C(C)(Cc1c[nH]c2ccccc12)NS(=O)(=O)NC(=O)OC1C2CC3CC(C2)CC1C3 (racemic) [Example 101, DL-Tryptophan, α-methyl-N-[[[(tricyclo[3.3.1.1^3,7]dec-2-yloxy)-carbonyl]amino]sulfonyl]-, methyl ester]",<10
2,"Cc1cc(C(C)(C)C)c(OC(=O)NS(=O)(=O)NC(c2ccccc2)c2ccccc2)c(C(C)(C)C)c1 [Example 3, Carbamic acid, [[(diphenylmethyl)amino]sulfonyl]-, 2,6-bis(l,1-dimethylethyl)-4-methylphenyl ester]",79.34

# Same assay, conditions: Homo sapiens, ECV-304, 6 h, 10 μM compound; ECV-304 NF-κB.βlaZ cells stimulated with 10 ng/mL TNF-α or 100 pg/mL IL-1β, 6 hours at 37° C.; inhibition of maximum blue/green ratio; read-out: Percent Inhibition at 10 μM
row,Compound,inhibition at 10 µM [%]
1,"CC(C)c1cccc(C(C)C)c1OS(=O)(=O)NC(=O)C(c1ccccc1)c1ccccc1 [Example 160, Diphenylacetyl-sulfamic acid 2,6-diisopropyl-phenyl ester]",34.2
2,"CC(C)c1cccc(C(C)C)c1NC(=O)NS(=O)(=O)N1CCCC1 [Example 70, Urea, N-[2,6-bis(1-methylethyl)phenyl]-N′-(1-pyrrolidinylsulfonyl)-]",< 10
3,"CCCCCCCCCC(=O)NS(=O)(=O)Oc1c(C(C)C)cccc1C(C)C [Example 106, Sulfamic acid, (1-oxodecyl)-, 2,6-bis(1-methylethyl)phenyl ester]",72.3
4,"CC(C)c1cccc(C(C)C)c1NC(=O)NS(=O)(=O)Oc1c(C(C)C)cccc1C(C)C [Example 95, Sulfamic acid, [[[2,6-bis(1-methylethyl)phenyl]amino]carbonyl]-, 2,6-bis(1-methylethyl)phenyl ester]",33.1
5,"CC(C)c1cccc(C(C)C)c1NC(=O)NS(=O)(=O)N(C(C)C)C1CCCCC1 [Example 63, Urea, N-[2,6-bis(1-methylethyl)phenyl]-N′-[[cyclohexyl(1-methylethyl)amino]-sulfonyl]-]",23
6,"CC(C)c1cccc(C(C)C)c1OS(=O)(=O)NC(=O)C(c1ccccc1)C1CCCCC1 (centres unmarked) [Example 170, (Cyclohexyl-phenyl-acetyl)-sulfamic acid 2,6-diisopropyl-phenyl ester]",78.6
7,"CCCCCCCCCCCCCCCCCCN(C)S(=O)(=O)NC(=O)Nc1c(C(C)C)cccc1C(C)C [Example 80, Urea, N-[2,6-bis(1-methylethyl)phenyl]-N′-[(methyloctadecylamino)-sulfonyl]-]",< 10
8,"CCCCCCCCCCCCCCS(=O)(=O)N(C)C(=O)Nc1c(C(C)C)cccc1C(C)C [Example 241, N′-[2,6-bis(1-methylethyl)phenyl]-N-methyl-N-(tetradecylsulfonyl)-urea]",< 10
9,"CC1CCC(C(C)C)C(OC(=O)NS(=O)(=O)Oc2c(C(C)C)cccc2C(C)C)C1 (centres unmarked) [Example 138, Carbamic acid, [[2,6-bis(1-methylethyl)phenoxy]sulfonyl]-, 5-methyl-2-(1-methylethyl)cyclohexyl ester]",66.2
10,"C=CCN(CC=C)S(=O)(=O)NC(=O)Nc1c(C(C)C)cccc1C(C)C [Example 81, Urea, N-[2,6-bis(1-methylethyl)phenyl]-N′-[(di-2-propenylamino)-sulfonyl]-]",< 10
11,"CCCCCCCCCCOS(=O)(=O)NC(=O)Nc1c(C(C)C)cccc1C(C)C [Example 90, Sulfamic acid, [[[2,6-bis(1-methylethyl)phenyl]amino]carbonyl]-, decyl ester]",13.6
12,"CC(C)c1cccc(C(C)C)c1NC(=O)NS(=O)(=O)NC(c1ccccc1)c1ccccc1 [Example 8, Urea, N-[2,6-bis(1-methylethyl)phenyl]-N′-[[(diphenylmethyl)amino]-sulfonyl]-]",< 10
13,"CC(C)c1cc(C(C)C)c(CC(=O)NS(=O)(=O)Oc2c(C(C)C)cc(NC(=O)Nc3ccccc3)cc2C(C)C)c(C(C)C)c1 [Example 218, [(2,4,6-Triisopropyl-phenyl)-acetyl]-sulfamic acid 2,6-diisopropyl-4-(3-phenyl-ureido)-phenyl ester]",< 10
14,"CC(C)c1cc(C(C)C)c(CC(=O)NS(=O)(=O)Oc2c(C(C)C)cc(OCCCN(C)C)cc2C(C)C)c(C(C)C)c1 [Example 205, [(2,4,6-Triisopropyl-phenyl)-acetyl]-sulfamic acid 4-(3-dimethylamino-propoxy)-2,6-diisopropyl-phenyl ester]",11.7
15,"Cc1cc(C)c(CC(=O)NS(=O)(=O)Oc2c(C(C)C)cccc2C(C)C)c(C)c1 [Example 146, [(2,4,6-Trimethyl-phenyl)-acetyl]-sulfamic acid 2,6-diisopropyl-phenyl ester]",28.3
16,"CC(C)c1cccc(C(C)C)c1OS(=O)(=O)NC(=O)CC1CCCCC1 [Example 155, Cyclohexylacetyl-sulfamic acid 2,6-diisopropyl-phenyl ester]",< 10
17,"CCOc1ccc2nc(S(=O)(=O)NC(=O)Nc3c(C(C)C)cccc3C(C)C)sc2c1 [Example 239, N-[2,6-bis(1-methylethyl)phenyl]-N′-[(6-ethoxy-2-benzothiazolyl)sulfonyl]-urea]",< 10
18,"CCCCCCCCCCCCOS(=O)(=O)NC(=O)Cc1c(C(C)C)cc(C(C)C)cc1C(C)C [Example 199, [(2,4,6-Triisopropyl-phenyl)-acetyl]-sulfamic acid dodecyl ester]",50.7

# Same assay, conditions: Homo sapiens; 10 μM compound; ECV-304 NF-κB.βlaZ cells stimulated with 10 ng/mL TNF-α or 100 pg/mL IL-1β, 6 hours at 37° C.; inhibition of maximum blue/green ratio; read-out: Percent Inhibition at 10 μM
row,Compound,inhibition at 10 µM [%]
1,"CCCCCCOS(=O)(=O)NC(=O)Oc1c(C(C)C)cccc1C(C)C [Example 57, Carbamic acid, [(hexyloxy)sulfonyl]-, 2,6-bis(1-methylethyl)phenyl ester]",20.4
2,"CCCCCCCCCCCCOS(=O)(=O)NC(=O)Oc1c(C(C)(C)C)cc(C)cc1C(C)(C)C [Example 51, Carbamic acid, [(dodecyloxy)sulfonyl]-, 2,6-bis(1,1-dimethylethyl)-4-methylphenyl ester]",47.2
3,"CCCCCCNS(=O)(=O)NC(=O)Oc1c(C(C)C)cccc1C(C)C [Example 67, Carbamic acid, [(hexylamino)sulfonyl]-, 2,6-bis(1-methylethyl)phenyl ester]",13.8
4,"CC(C)c1cccc(C(C)C)c1OC(=O)NS(=O)(=O)N1CCOCC1 [Example 58, Carbamic acid, (4-morpholinylsulfonyl)-, 2,6-bis(1-methylethyl)phenyl ester]",< 10
5,"COc1cc(C(C)(C)C)c(OC(=O)NS(=O)(=O)Nc2c(C(C)C)cccc2C(C)C)c(C(C)(C)C)c1 [Example 50, Carbamic acid, [[[2,6-bis(1-methylethyl)phenyl]amino]sulfonyl]-, 2,6-bis(1,1-dimethylethyl)-4-methoxyphenyl ester]",39.1
6,"CC(C)c1cccc(C(C)C)c1OS(=O)(=O)NC(=O)Oc1cccnc1 [Example 178, Carbamic acid, [[2,6-bis(1-methylethyl)phenoxy]sulfonyl]-, 3-pyridinyl ester]",< 10
7,"CC(C)c1cccc(C(C)C)c1OC(=O)NS(=O)(=O)Oc1c(C(C)C)cc(O)cc1C(C)C [Example 135, Carbamic acid, [[4-hydroxy-2,6-bis(1-methylethyl)phenoxy]sulfonyl]-, 2,6-bis(1-methylethyl)phenyl ester]",< 10
8,"CC(C)(C)c1cccc(C(C)(C)C)c1OC(=O)NS(=O)(=O)NCC(c1ccccc1)c1ccccc1 [Example 11, Carbamic acid, [[(2,2-diphenylethyl)amino]sulfonyl]-, 2,6-bis(1,1-dimethylethyl)-phenyl ester]",50.1
9,"CC(C)c1cccc(C(C)C)c1OS(=O)(=O)NC(=O)Oc1c(C(C)C)c(C(C)C)c(F)c(C(C)C)c1C(C)C [Example 116, Carbamic acid, [[2,6-bis(1-methylethyl)phenoxy]sulfonyl]-, 4-fluoro-2,3,5,6-tetrakis(1-methylethyl)phenyl ester]",< 10
